Measured values: patent US20250163038A1, “CBL-B MODULATORS AND USES THEREOF” (Nimbus Clio, Inc., priority 2021, published 2025)

Key:
[1] = tested on: Jurkat (clone E6-1) cells with NFAT luciferase reporter; experiment: Jurkat reporter assay (NFAT Luciferase); assay type: cell-based; settings: Homo sapiens; Jurkat NFAT luciferase reporter cells, anti-CD3 stimulation, 6 hr; read-out: Jurkat NFAT EC50
[2] = biological target: T1, Recombinant human c-Cbl (aa 47-435) (Homo sapiens, UniProt P22681); experiment: c-Cbl Biochemical Assay (TR-FRET); settings: hc-Cbl Biochemical Assay (TR-FRET); read-out: TR-FRET hcCbl IC50
T1 sequence (P22681 47-435): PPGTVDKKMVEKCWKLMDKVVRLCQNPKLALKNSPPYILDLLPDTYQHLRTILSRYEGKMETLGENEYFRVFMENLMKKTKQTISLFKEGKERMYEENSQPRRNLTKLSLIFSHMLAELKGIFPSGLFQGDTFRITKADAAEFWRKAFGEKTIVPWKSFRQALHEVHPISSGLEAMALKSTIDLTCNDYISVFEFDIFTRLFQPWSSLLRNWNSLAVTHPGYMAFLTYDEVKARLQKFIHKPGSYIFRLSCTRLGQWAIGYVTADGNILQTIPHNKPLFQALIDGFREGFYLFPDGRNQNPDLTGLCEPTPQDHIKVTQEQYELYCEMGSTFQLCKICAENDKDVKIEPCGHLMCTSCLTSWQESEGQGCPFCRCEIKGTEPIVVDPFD

[3] = biological target: Recombinant human Cbl-b (aa 36-427) (Homo sapiens, UniProt Q13191); experiment: Cbl-b Biochemical Assay (TR-FRET); settings: read-out: TR-FRET hCbl-b IC50
Sequence of Recombinant human Cbl-b (aa 36-427) (Q13191 36-427): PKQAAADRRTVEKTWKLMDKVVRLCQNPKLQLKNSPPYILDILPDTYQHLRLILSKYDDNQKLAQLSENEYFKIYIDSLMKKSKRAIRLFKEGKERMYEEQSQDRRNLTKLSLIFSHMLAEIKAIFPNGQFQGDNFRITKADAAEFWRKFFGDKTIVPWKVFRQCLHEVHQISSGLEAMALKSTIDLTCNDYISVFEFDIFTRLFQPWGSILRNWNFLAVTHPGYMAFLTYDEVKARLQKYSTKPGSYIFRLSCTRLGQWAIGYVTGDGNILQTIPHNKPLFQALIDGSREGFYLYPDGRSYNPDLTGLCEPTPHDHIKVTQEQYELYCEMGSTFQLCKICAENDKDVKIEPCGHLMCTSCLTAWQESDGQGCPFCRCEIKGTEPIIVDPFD

| EC50 [1] | IC50 [2] | IC50 [3] | SMILES |
| --- | --- | --- | --- |
| < 200 nM | < 200 nM | < 200 nM | Cn1cnnc1-c1cc(F)ccc1-c1cccc(-c2nc3cc(CNCC4(O)CCC4)cc(C4CC4)c3o2)c1 [JG-1, 1-((((7-Cyclopropyl-2-(4′-fluoro-2′-(4-methyl-4H-1,2,4-triazol-3-yl)-[1,1′-biphenyl]-3-yl)benzo[d]oxazol-5-yl)methyl)amino)methyl)cyclobutan-1-ol] |
| 200 to 1000 nM | < 200 nM | < 200 nM | Cc1cc(CN(C)[C@@H]2CCC[C@@H]2O)cc2nc(-c3cccc(-c4ccc(F)cc4-c4nncn4C)c3)oc12 [HY-3, (1S,2R)-2-(((2-(4′-Fluoro-2′-(4-methyl-4H-1,2,4-triazol-3-yl)-[1,1′-biphenyl]-3-yl)-7-methylbenzo[d]oxazol-5-yl)methyl)(methyl)amino)cyclopentan-1-ol] |
| 1000 to 10000 nM | 1000 to 10000 nM | 1000 to 10000 nM | Cn1cnnc1-c1cc(F)ccc1-c1cccc(-c2nc3ccc(CN[C@@H]4CCC[C@@H]4O)cc3s2)c1 [EK-5, (1S,2R)-2-(((2-(4′-Fluoro-2′-(4-methyl-4H-1,2,4-triazol-3-yl)-[1,1′-biphenyl]-3-yl)benzo[d]thiazol-6-yl)methyl)amino)cyclopentan-1-ol] |
| 10000 to 50000 nM | 1000 to 10000 nM | 1000 to 10000 nM | Cn1cnnc1-c1cc(F)ccc1-c1cccc(-c2cn3cc(CN[C@@H]4CCC[C@@H]4O)ccc3n2)c1 [GL-2, (1S,2R)-2-(((2-(4′-fluoro-2′-(4-methyl-4H-1,2,4-triazol-3-yl)-[1,1′-biphenyl]-3-yl)imidazo[1,2-a]pyridin-6-yl)methyl)amino)cyclopentan-1-ol] |
| < 200 nM | < 200 nM | < 200 nM | C[C@H](N[C@@H]1CCC[C@@H]1O)c1cc(C(F)(F)F)c2oc(-c3cccc(-c4ccc(F)cc4-c4nncn4C)c3)nc2c1 [EA-1, (1S,2R)-2-(((S)-1-(2-(4′-Fluoro-2′-(4-methyl-4H-1,2,4-triazol-3-yl)-[1,1′-biphenyl]-3-yl)-7-(trifluoromethyl)benzo[d]oxazol-5-yl)ethyl)amino)cyclopentan-1-ol] |
| < 200 nM | < 200 nM | < 200 nM | Cn1cnnc1-c1cc(F)ccc1-c1cccc(-c2nc3cc(CN[C@@H]4CCC[C@@H]4O)cc(C(F)F)c3o2)c1 [EY-2, (1S,2R)-2-(((7-(Difluoromethyl)-2-(4′-fluoro-2′-(4-methyl-4H-1,2,4-triazol-3-yl)-[1,1′-biphenyl]-3-yl)benzo[d]oxazol-5-yl)methyl)amino)cyclopentan-1-ol] |
| < 200 nM | < 200 nM | < 200 nM | Cn1cnnc1-c1cc(F)ccc1-c1cccc(-c2nc3cc(CNC4CC5(CCC5)C4)cc(C(F)(F)F)c3o2)c1 [FM-2, N-((2-(4′-Fluoro-2′-(4-methyl-4H-1,2,4-triazol-3-yl)-[1,1′-biphenyl]-3-yl)-7-(trifluoromethyl)benzo[d]oxazol-5-yl)methyl)spiro[3.3]heptan-2-amine] |
| < 200 nM | < 200 nM | < 200 nM | C[C@H](O)CNCc1cc(F)c2oc(-c3cccc(-c4ccc(F)cc4-c4nncn4C)c3)nc2c1 [JP-1, (S)-1-(((7-Fluoro-2-(4′-fluoro-2′-(4-methyl-4H-1,2,4-triazol-3-yl)-[1,1′-biphenyl]-3-yl)benzo[d]oxazol-5-yl)methyl)amino)propan-2-ol] |
| < 200 nM | < 200 nM | < 200 nM | Cn1cnnc1-c1cc(F)ccc1-c1cccc(-c2nc3cc(CNC4CCC4)cc(C(F)(F)F)c3o2)c1 [GC-2, N-((2-(4′-Fluoro-2′-(4-methyl-4H-1,2,4-triazol-3-yl)-[1,1′-biphenyl]-3-yl)-7-(trifluoromethyl)benzo[d]oxazol-5-yl)methyl)cyclobutanamine] |

The remaining lines, values behind:

| SMILES | EC50 [1] | IC50 [2] | IC50 [3] |
| --- | --- | --- | --- |
| Cn1cnnc1-c1cc(C#N)ccc1-c1cc(-c2nc3cc(CNCC4CCC4)cc(F)c3o2)nc(C2CC2)c1 [AHE-2, 4-[2-(5-{[(cyclobutylmethyl)amino]methyl}-7-fluoro-1,3-benzoxazol-2-yl)-6-cyclopropylpyridin-4-yl]-3-(4-methyl-1,2,4-triazol-3-yl) benzonitrile] | < 200 nM | < 200 nM | < 200 nM |
| COC1(CNC2(c3cc(F)c4oc(-c5cc(-c6ccc(F)cc6-c6nncn6C)cc(C6CC6)n5)nc4c3)CC2)CCC1 [AGO-2, 1-(2-{6-Cyclopropyl-4-[4-fluoro-2-(4-methyl-1,2,4-triazol-3-yl)phenyl]pyridin-2-yl}-7-fluoro-1,3-benzoxazol-5-yl)-N-[(1-methoxycyclobutyl)methyl]cyclopropan-1-amine] | 200 to 1000 nM | 200 to 1000 nM | < 200 nM |
| CO[C@@H](C)CNCc1cc(F)c2oc(-c3cc(-c4ccc(F)cc4-c4nncn4C)cc(C4CC4)n3)nc2c1 [AFO-2, [(2-{6-Cyclopropyl-4-[4-fluoro-2-(4-methyl-1,2,4-triazol-3-yl)phenyl]pyridin-2-yl}-7-fluoro-1,3-benzoxazol-5-yl)methyl][(2S)-2-methoxypropyl]amine] | 200 to 1000 nM | < 200 nM | < 200 nM |
| Cn1cnnc1-c1cc(F)ccc1-c1cc(-c2nc3cc(CN[C@@H]4CCC[C@@H]4O)c(F)c(F)c3o2)nc(C2CC2)c1 [AFY-2, (1S,2R)-2-{[(2-{6-Cyclopropyl-4-[4-fluoro-2-(4-methyl-1,2,4-triazol-3-yl)phenyl]pyridin-2-yl}-6,7-difluoro-1,3-benzoxazol-5-yl)methyl]amino}cyclopentan-1-ol] | < 200 nM | < 200 nM | < 200 nM |
| COC[C@H](C)NCc1cc(F)c2oc(-c3cc(-c4ccc(F)cc4-c4nncn4C)cc(C4CC4)n3)nc2c1 [AFU-1, [(2-{6-Cyclopropyl-4-[4-fluoro-2-(4-methyl-1,2,4-triazol-3-yl)phenyl]pyridin-2-yl}-7-fluoro-1,3-benzoxazol-5-yl)methyl][(2S)-1-methoxypropan-2-yl]amine] | < 200 nM | < 200 nM | < 200 nM |
| Cc1cc(C(C)(C)N)cc2nc(-c3cc(-c4ccc(F)cc4-c4nncn4C)cc(C4CC4)n3)oc12 [AGR-9, 2-(2-{6-Cyclopropyl-4-[4-fluoro-2-(4-methyl-1,2,4-triazol-3-yl)phenyl]pyridin-2-yl}-7-methyl-1,3-benzoxazol-5-yl)propan-2-amine] | 1000 to 10000 nM | 1000 to 10000 nM | 200 to 1000 nM |
| Cc1cc([C@@H](C)NCC2CCC2)cc2nc(-c3cc(-c4ccc(F)cc4-c4nncn4C)cc(C4CC4)n3)oc12 [AGY-1, (cyclobutylmethyl)[(1R)-1-(2-{6-cyclopropyl-4-[4-fluoro-2-(4-methyl-1,2,4-triazol-3-yl)phenyl]pyridin-2-yl}-7-methyl-1,3-benzoxazol-5-yl)ethyl]amine] | < 200 nM | < 200 nM | < 200 nM |
| Cn1cnnc1-c1cc(F)ccc1-c1cc(-c2nc3cc(CN[C@@H]4CCC[C@@H]4O)cc(C(F)(F)F)c3o2)nc(C2CC2)c1 [ADA-6, (1S,2R)-2-{[(2-{6-Cyclopropyl-4-[4-fluoro-2-(4-methyl-1,2,4-triazol-3-yl)phenyl]pyridin-2-yl}-7-(trifluoromethyl)-1,3-benzoxazol-5-yl)methyl]amino}cyclopentan-1-ol] | < 200 nM | < 200 nM | < 200 nM |
| Cn1cnnc1-c1cc(Cl)ccc1-c1cc(-c2nc3cc(CNCC4(O)CCC4)cc(F)c3o2)nc(C2CC2)c1 [AHI-5, 1-({[(2-{4-[4-chloro-2-(4-methyl-1,2,4-triazol-3-yl)phenyl]-6-cyclopropylpyridin-2-yl}-7-fluoro-1,3-benzoxazol-5-yl)methyl]amino}methyl)cyclobutan-1-ol] | < 200 nM | < 200 nM | < 200 nM |
| Cc1c(F)c(CNCC(C)(C)O)cc2nc(-c3cccc(-c4ccc(F)cc4-c4nncn4C)c3)oc12 [AHK-4, 1-[({6-fluoro-2-[4′-fluoro-2′-(4-methyl-1,2,4-triazol-3-yl)-[1,1′-biphenyl]-3-yl]-7-methyl-1,3-benzoxazol-5-yl}methyl)amino]-2-methylpropan-2-ol] | < 200 nM | < 200 nM | < 200 nM |
| Cn1cnnc1-c1cc(F)ccc1-c1cccc(-c2nc3cc(CNCC4(O)CCC4)cc(C(F)(F)F)c3[nH]2)c1 [BP-1, 1-((((2-(4′-Fluoro-2′-(4-methyl-4H-1,2,4-triazol-3-yl)-[1,1′-biphenyl]-3-yl)-7-(trifluoromethyl)-1H-benzo[d]imidazol-5-yl)methyl)amino)methyl)cyclobutan-1-ol] | 200 to 1000 nM | 1000 to 10000 nM | < 200 nM |
| Cn1cnnc1-c1cc(F)ccc1-c1cccc(-c2nc3cc(CNC[C@@H]4CCC(=O)N4)cc(C(F)(F)F)c3o2)c1 [CU-2, (S)-5-((((2-(4′-Fluoro-2′-(4-methyl-4H-1,2,4-triazol-3-yl)-[1,1′-biphenyl]-3-yl)-7-(trifluoromethyl)benzo[d]oxazol-5-yl)methyl)amino)methyl)pyrrolidin-2-one] | 200 to 1000 nM | < 200 nM | < 200 nM |
| CN1CCC[C@H](NCc2cc(C(F)(F)F)c3[nH]c(-c4cccc(-c5ccc(F)cc5-c5nncn5C)c4)nc3c2)C1=O [CC-2, (S)-3-(((2-(4′-Fluoro-2′-(4-methyl-4H-1,2,4-triazol-3-yl)-[1,1′-biphenyl]-3-yl)-7-(trifluoromethyl)-1H-benzo[d]imidazol-5-yl)methyl)amino)-1-methylpiperidin-2-one, formic Acid] | 1000 to 10000 nM | 1000 to 10000 nM | < 200 nM |
